Molecules are shown by their SMILES. Structures can show the parent of a compound that is named as a salt.

The subject of one test is HCV replicon. The test is described as follows: Replicon based assay of HCV replication inhibition (NPT ELISA). As to conditions: Hepatitis C virus, Huh-7, 72 h, Table I; Huh-7 HCV replicon-containing cells, three days; read-out: Activity. The class given is cell-based, Hepatitis C virus. The essentials: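 NPT (neomycin phosphotransferase) content, proportional to replicon replication, quantified by capture ELISA on day four. Before that, replicon-bearing Huh-7 cells in G418-free screening medium were exposed three days at 37° C to compound, typically six doses from 10 to 0.03 micromolar, with equal DMSO across wells.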
Regarding `CCCCCOc1ccc(Nc2nc(CN(C)CC(N)=O)cs2)cc1C(F)(F)F` [compound 218, 2-(N-((2-(3-(trifluoromethyl)-4-(pentyloxy)phenylamino)thiazol-4-yl)methyl)-N-methylamino)acetamide], the EC50 is less than 1 µM. Same read-out and setting: the figure for `CCCCCOc1ccc(Nc2nc(-c3ccc(C(=O)N(C)CC(N)=O)nc3)cs2)cc1C(F)(F)F` [compound 221, 5-(2-(3-(trifluoromethyl)-4-(pentyloxy)phenylamino)thiazol-4-yl)-N-(carbamoylmethyl)-N-methylpyridine-2-carboxamide] is less than 1 µM; for `CCCCCOc1ccc(Nc2nc(-c3ccc(C(=O)N4CCNC(=O)C4)nc3)cs2)cc1C(F)(F)F` [compound 222] it is less than 1 µM; for `CCCCCOc1ccc(Nc2nc(-c3cn4ccccc4n3)cs2)cc1C(F)(F)F` [compound 223, N-(3-(trifluoromethyl)-4-(pentyloxy)phenyl)-4-(H-imidazo[1,2-a]pyridin-2-yl)thiazol-2-amine] it is less than 1 µM.

The same test, now with this note: Hepatitis C virus, replicon based assay of HCV replication inhibition; Table II; read-out: Activity.
As to `CCCCCOc1ccc(Nc2nc(C3CCCN(C(=O)OC(C)(C)C)C3)cs2)cc1C(F)(F)F` (stereo not drawn) [compound 224, tert-butyl 3-(2-(4-(pentyloxy)-3-(trifluoromethyl)phenyl-amino)thiazol-4-yl)piperidine-1-carboxylate], the EC50 is less than 1 µM. Still for that read-out and setting: as for `CCCCCOc1ccc(Nc2nc(C3CCCNC3)cs2)cc1C(F)(F)F` (stereo not drawn) [compound 225, N-(4-(pentyloxy)-3-(trifluoromethyl)phenyl)-4-(piperidin-3-yl)thiazol-2-amine hydrochloride], the figure is 1 to 10 µM; as for `CCCCCOc1ccc(Nc2nc(C3CCCN3C(=O)C(F)(F)F)cs2)cc1C(F)(F)F` (stereo not drawn) [compound 226, 2,2,2-trifluoro-1-(2-(2-(4-(pentyloxy)-3(trifluoromethyl)phenyl-amino)thiazol-4-yl)pyrrolidin-1-yl)ethanone], 1 to 10 µM; as for `CCCCCOc1ccc(Nc2nc(-c3cnc4scc(C)n34)cs2)cc1C(F)(F)F` [compound 227, 4-(3-methylimidazo[1,2-b]thiazol-5-yl)-N-(4-(pentyloxy)-3-(trifluoromethyl)phenyl)thia-zol-2-amine], less than 1 µM.

With `CCCCCOc1ccc(Nc2nc(C3=CSC4=NCCN34)cs2)cc1C(F)(F)F` [compound 228, 4-(5,6-dihydroimidazo[2,1-b]thiazol-3-yl)-N-(4-(pentyloxy)-3-(trifluoromethyl)phenyl)thia-zol-2-amine], the EC50 was less than 1 µM. The same measure, in the same setting: the figure for `CCCCCOc1ccc(Nc2nc(C3=NN=C(N)SC3)cs2)cc1C(F)(F)F` [compound 229, 5-(2-(4-(pentyloxy)-3-(trifluoromethyl)phenyl-amino)thiazol-4-yl)-6H-1,3,4-thiazdiazin-2-amine] is less than 1 µM. The same measure, in the same setting: the figure for `CCCCCOc1ccc(Nc2nc(CN3CCCCC3)cs2)cc1C(F)(F)F` [compound 230, N-(4-(pentyloxy)-3-(trifluoromethyl)phenyl)-4-(piperidin-1-ylmethyl)thiazol-2-amine] is 1 to 10 µM. On the same count and under the same terms, the figure for `CCCCCOc1ccc(Nc2nc(CN3CCC(C)CC3)cs2)cc1C(F)(F)F` [compound 231, 4-((4-methylpiperidin-1-yl)methyl)-N-(4-(pentyloxy)-3-(trifluoromethyl)phenyl)thia-zol-2-amine] is less than 1 µM; for `CCCCCOc1ccc(Nc2nc(C(=O)Nc3ccncc3)cs2)cc1C(F)(F)F` [compound 232, 2-(4-(pentyloxy)-3-(trifluoromethyl)phenyl-amino)-N-(pyridin-4-yl)thiazole-4-carboxamide] it is 1 to 10 µM; for `CCCCCOc1ccc(Nc2nc(C(=O)Nc3ccc(C(F)(F)F)nc3)cs2)cc1C(F)(F)F` [compound 233, 2-(4-(pentyloxy)-3-(trifluoromethyl)phenyl-amino)-N-(6-(trifluoromethyl)pyridin-3-yl)thiazole-4-carboxamide] it is more than 10 µM. Regarding `CCCCCOc1ccc(Nc2nc(-c3ccc(CN(C)C)cc3)cs2)cc1C(F)(F)F` [compound 234, 4-(4-((dimethylamino)methyl)phenyl)-N-(4-(pentyloxy)-3-(trifluoromethyl)phenyl)thia-zol-2-amine], the EC50 is less than 1 µM. Same read-out and setting: the figure for `CCCCCOc1ccc(Nc2nc([C@H]3CCCN(C)C3)cs2)cc1C(F)(F)F` [compound 235, (S)-4-(1-methylpiperidin-3-yl)-N-(4-(pentyloxy)-3-(trifluoromethyl)phenyl)thia-zol-2-amine] is less than 1 µM.

In the case of `CN1CCC[C@H](c2csc(Nc3ccc(Oc4ccccc4)cc3)n2)C1` [compound 236, (S)-4-(1-methylpiperidin-3-yl)-N-(4-phenoxyphenyl)thiazol-2-amine], the EC50 is 1 to 10 µM. Regarding `CN1CCC[C@H](c2csc(Nc3cccc(OCc4ccccc4)c3)n2)C1` [compound 237, (S)-N-(3-(benzyloxy)phenyl)-4-(1-methylpiperidin-3-yl)thiazol-2-amine], the EC50 was in the range of 1 to 10 µM. Still for that read-out and setting: the figure for `FC(F)(F)c1cc(Nc2nc(-c3cccnc3)cs2)ccc1OC1CCCC1` [compound 238, N-(4-(cyclopentyloxy)-3-(trifluoromethyl)phenyl)-4-(pyridin-3-yl)thiazol-2-amine] is less than 1 µM; for `CC(C)COc1ccc(Nc2nc(-c3cccnc3)cs2)cc1C(F)(F)F` [compound 239, N-(4-isobutoxy-3-(trifluoromethyl)phenyl)-4-(pyridin-3-yl)thiazol-2-amine] it is less than 1 µM. The same measure, in the same setting: the figure for `FC(F)(F)c1cc(Nc2nc(-c3cccnc3)cs2)ccc1OCC1CC1` [compound 240, N-(4-(cyclopropylmethoxy)-3-(trifluoromeethyl)phenyl)-4-(pyridin-3-yl)thiazol-2-amine] is less than 1 µM; for `Fc1ccc(-c2csc(Nc3ccc(OC4CCCC4)c(C(F)(F)F)c3)n2)cc1` [compound 241, N-(4-(cyclopentyloxy)-3-(trifluoromethyl)phenyl)-4-(4-fluorophenyl)thiazol-2-amine] it is less than 1 µM. The same measure, in the same setting: as for `CC(C)COc1ccc(Nc2nc(-c3ccc(F)cc3)cs2)cc1C(F)(F)F` [compound 242, 4-(4-fluorophenyl)-N-(4-isobutoxy-3-(trifluoromethyl)phenyl)thia-zol-2-amine], the figure is less than 1 µM. `Fc1ccc(-c2csc(Nc3ccc(OCC4CC4)c(C(F)(F)F)c3)n2)cc1` [compound 243, N-(4-(cyclopropylmethoxy)-3-(trifluoromethyl)phenyl)-4-(4-fluorophenyl)thiazol-2-amine]: the EC50 is less than 1 µM. On the same count and under the same terms, the figure for `CC(C)COc1ccc(Nc2nc(-c3ccc(CC(=O)O)s3)cs2)cc1C(F)(F)F` [compound 244, 2-(5-(2-(4-isobutoxy-3-(trifluoromethyl)phenyl-amino)thiazol-4-yl)thiophen-2-yl)acetic acid] is less than 1 µM. On to `Cc1sc(Nc2ccc(OC3CCCC3)c(C(F)(F)F)c2)nc1-c1ccc(CC(=O)O)cc1` [compound 245, 2-(4-(2-(4-(cyclopentyloxy)-3-(trifluoromethyl)phenyl-amino)-5-methylthiazol-4-yl)phenyl)acetic acid], for which the EC50 was less than 1 µM.

For `Cc1sc(Nc2ccc(OCC(C)C)c(C(F)(F)F)c2)nc1-c1ccc(CC(=O)O)cc1` [compound 246, 2-(4-(2-(4-isobutoxy-3-(trifluoromethyl)phenyl-amino)-5-methylthiazol-4-yl)phenyl)acetic acid], the EC50 lay within 1 to 10 µM.

The record behind these values is patent US8088806B2 (Achillion Pharmaceuticals, Inc., priority 2005, dated 2012).
